# Columns and labels:
# Test in all cases: cells
# [1] = test system: COR-L105; type: functional, cell-based, Homo sapiens; conditions: Homo sapiens, COR-L105;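 also: cell growth inhibition determined with a viability assay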
# Description: SANGER: Inhibition of human COR-L105 cell growth in a cell viability assay.
# [2] = test system: Capan-2; type: functional, cell-based, Homo sapiens; conditions: Homo sapiens, Capan-2;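 also: Capan-2 cell growth inhibition, read out with a viability assay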
# [3] = test system: D-542MG; type: functional, cell-based, Homo sapiens; conditions: Homo sapiens, D-542MG
# Description: SANGER: Inhibition of human D-542MG cell growth in a cell viability assay.
# [4] = test system: DJM-1; type: functional, cell-based, Homo sapiens; conditions: Homo sapiens, DJM-1;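 also: growth inhibition of human DJM-1 cells, read out by a cell viability assay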
# Description: SANGER: Inhibition of human DJM-1 cell growth in a cell viability assay.
# [5] = test system: DMS-273; type: functional, cell-based, Homo sapiens; conditions: Homo sapiens, DMS-273
# Description: SANGER: Inhibition of human DMS-273 cell growth in a cell viability assay.
# [6] = test system: EC-GI-10; type: functional, cell-based, Homo sapiens; conditions: Homo sapiens, EC-GI-10
# Description: SANGER: Inhibition of human EC-GI-10 cell growth in a cell viability assay.
# [7] = test system: ES6; type: functional, cell-based, Homo sapiens; conditions: Homo sapiens, ES6;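 also: growth inhibition of human ES6 cells, read out with a cell viability assay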
# Description: SANGER: Inhibition of human ES6 cell growth in a cell viability assay.
# [8] = test system: HCC1937; type: functional, cell-based, Homo sapiens; conditions: Homo sapiens, HCC1937;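 also: growth inhibition measured with a cell viability read-out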
# Description: SANGER: Inhibition of human HCC1937 cell growth in a cell viability assay.
# [9] = test system: HCC70; type: functional, cell-based, Homo sapiens; conditions: Homo sapiens, HCC70;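 also: cell viability assay measuring how strongly the compound suppresses proliferation of HCC70 cells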
# Description: SANGER: Inhibition of human HCC70 cell growth in a cell viability assay.
# [10] = test system: HEL; type: functional, cell-based, Homo sapiens; conditions: Homo sapiens, HEL;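 also: growth inhibition of HEL cells, read out with a cell viability assay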
# Description: SANGER: Inhibition of human HEL cell growth in a cell viability assay.
# [11] = test system: HMV-2 cell line; type: functional, cell-based, Homo sapiens; conditions: Homo sapiens, HMV-2;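 also: growth inhibition of HMV-II cells, read out with a cell viability assay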
# Description: SANGER: Inhibition of human HMV-II cell growth in a cell viability assay.
# [12] = test system: HN; type: functional, cell-based, Homo sapiens; conditions: Homo sapiens, HN
# Description: SANGER: Inhibition of human HN cell growth in a cell viability assay.
# [13] = test system: HOS; type: functional, cell-based, Homo sapiens; conditions: Homo sapiens, HOS;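 also: growth inhibition of human HOS cells, read out with a cell viability assay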
# Description: SANGER: Inhibition of human HOS cell growth in a cell viability assay.
# [14] = test system: Hs-578T; type: functional, cell-based, Homo sapiens; conditions: Homo sapiens, Hs-578T
# Description: SANGER: Inhibition of human Hs-578-T cell growth in a cell viability assay.
# [15] = test system: KP-N-YS; type: functional, cell-based; conditions: Homo sapiens;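 also: cell viability assay measuring inhibition of cell line growth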
# Description: SANGER: Inhibition of human KP-N-YS cell growth in a cell viability assay.
# [16] = test system: KYSE-180; type: functional, cell-based, Homo sapiens; conditions: Homo sapiens, KYSE-180;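 also: growth inhibition of KYSE-180 cells, read out with a cell viability assay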
# Description: SANGER: Inhibition of human KYSE-180 cell growth in a cell viability assay.
# [17] = test system: LAMA-84; type: functional, cell-based; conditions: Homo sapiens;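 also: growth inhibition of LAMA-84 cells, read out with a cell viability assay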
# Description: SANGER: Inhibition of human LAMA-84 cell growth in a cell viability assay.
# [18] = test system: LS-411N; type: functional, cell-based, Homo sapiens; conditions: Homo sapiens, LS-411N
# [19] = test system: MDA-MB-157; type: functional, cell-based, Homo sapiens; conditions: Homo sapiens, MDA-MB-157
# Description: SANGER: Inhibition of human MDA-MB-157 cell growth in a cell viability assay.
# [20] = test system: MEG-01; type: functional, cell-based; conditions: Homo sapiens;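 also: growth inhibition of MEG-01 cells, read out by a cell viability assay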
# Description: SANGER: Inhibition of human MEG-01 cell growth in a cell viability assay.
# [21] = test system: MKN-28; type: functional, cell-based, Homo sapiens; conditions: Homo sapiens, MKN-28;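 also: cell viability assay read-out, IC50 reflects suppression of growth of human MKN-28 cells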
# [22] = test system: MKN-7; type: functional, cell-based, Homo sapiens; conditions: Homo sapiens, MKN-7;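 also: growth inhibition of MKN-7 cells, read out with a cell viability assay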
# Description: SANGER: Inhibition of human MKN7 cell growth in a cell viability assay.
# [23] = test system: MSTO-211H; type: functional, cell-based, Homo sapiens; conditions: Homo sapiens, MSTO-211H
# Description: SANGER: Inhibition of human MSTO-211H cell growth in a cell viability assay.
# [24] = test system: MZ1-PC; type: functional, cell-based, Homo sapiens; conditions: Homo sapiens, MZ1-PC;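 also: cell viability assay measuring growth inhibition of human MZ1-PC cells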
# Description: SANGER: Inhibition of human MZ1-PC cell growth in a cell viability assay.
# [25] = test system: MeWo; type: functional, cell-based, Homo sapiens; conditions: Homo sapiens, MeWo;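 also: growth inhibition of MeWo cells, determined by a cell viability readout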
# Description: SANGER: Inhibition of human Mewo cell growth in a cell viability assay.
# [26] = test system: NCI-H1299; type: functional, cell-based, Homo sapiens; conditions: Homo sapiens, NCI-H1299;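 also: growth inhibition of human NCI-H1299 cells, read out by a cell viability assay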
# Description: SANGER: Inhibition of human NCI-H1299 cell growth in a cell viability assay.
# [27] = test system: NCI-H1355; type: functional, cell-based, Homo sapiens; conditions: Homo sapiens, NCI-H1355;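 also: growth inhibition of human NCI-H1355 cells, read out by a cell viability assay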
# Description: SANGER: Inhibition of human NCI-H1355 cell growth in a cell viability assay.
# [28] = test system: NCI-H1651; type: functional, cell-based, Homo sapiens; conditions: Homo sapiens, NCI-H1651;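 also: Read-out is a cell viability assay, with IC50 expressing inhibition of NCI-H1651 cell growth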
# Description: SANGER: Inhibition of human NCI-H1651 cell growth in a cell viability assay.
# [29] = test system: NCI-H1793; type: functional, cell-based, Homo sapiens; conditions: Homo sapiens, NCI-H1793;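 also: cell growth inhibition, read out by a cell viability assay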
# Description: SANGER: Inhibition of human NCI-H1793 cell growth in a cell viability assay.
# [30] = test system: NCI-H2122; type: functional, cell-based, Homo sapiens; conditions: Homo sapiens, NCI-H2122;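 also: growth inhibition of the cells, read out with a cell viability assay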
# Description: SANGER: Inhibition of human NCI-H2122 cell growth in a cell viability assay.
# [31] = test system: OMC-1; type: functional, cell-based, Homo sapiens; conditions: Homo sapiens, OMC-1;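 also: growth inhibition of the OMC-1 cell line, measured by a cell viability assay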
# Description: SANGER: Inhibition of human OMC-1 cell growth in a cell viability assay.
# [32] = test system: P12-Ichikawa; type: functional, cell-based; conditions: Homo sapiens
# [33] = test system: Panc1005; type: functional, cell-based, Homo sapiens; conditions: Homo sapiens, Panc1005;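 also: growth inhibition of human PANC-10-05 cells, measured by a cell viability assay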
# Description: SANGER: Inhibition of human PANC-10-05 cell growth in a cell viability assay.
# [34] = test system: RCC10RGB; type: functional, cell-based, Homo sapiens; conditions: Homo sapiens, RCC10RGB;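 also: growth inhibition of human RCC10RGB cells, read out by a cell viability assay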
# Description: SANGER: Inhibition of human RCC10RGB cell growth in a cell viability assay.
# [35] = test system: SF-268; type: functional, cell-based, Homo sapiens; conditions: Homo sapiens, SF-268;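 also: growth inhibition of SF-268 cells determined with a cell viability assay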
# Description: SANGER: Inhibition of human SF268 cell growth in a cell viability assay.
# [36] = test system: SK-LMS-1; type: functional, cell-based, Homo sapiens; conditions: Homo sapiens, SK-LMS-1;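 also: growth inhibition of human SK-LMS-1 cells, read out with a cell viability assay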
# Description: SANGER: Inhibition of human SK-LMS-1 cell growth in a cell viability assay.
# [37] = test system: SK-MEL-30; type: functional, cell-based; conditions: Homo sapiens;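 also: growth inhibition of SK-MEL-30 cells, determined with a cell viability assay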
# Description: SANGER: Inhibition of human SK-MEL-30 cell growth in a cell viability assay.
# [38] = test system: SK-MES-1; type: functional, cell-based, Homo sapiens; conditions: Homo sapiens, SK-MES-1;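 also: growth inhibition of human SK-MES-1 cells, read out with a cell viability assay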
# Description: SANGER: Inhibition of human SK-MES-1 cell growth in a cell viability assay.
# [39] = test system: SNU-449; type: functional, cell-based, Homo sapiens; conditions: Homo sapiens, SNU-449
# Description: SANGER: Inhibition of human SNU-449 cell growth in a cell viability assay.
# [40] = test system: SW1088; type: functional, cell-based, Homo sapiens; conditions: Homo sapiens, SW1088;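 also: growth inhibition of human SW1088 cells, read out by a cell viability assay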
# Description: SANGER: Inhibition of human SW1088 cell growth in a cell viability assay.
# [41] = test system: 647-V; type: functional, cell-based, Homo sapiens; conditions: Homo sapiens, 647-V;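 also: growth inhibition of 647-V cells, read out with a cell viability assay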
# Description: SANGER: Inhibition of human 647-V cell growth in a cell viability assay.
# [42] = test system: A2058; type: functional, cell-based; conditions: Homo sapiens;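 also: reduction of A2058 cell growth, read out with a viability assay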
# Description: SANGER: Inhibition of human A2058 cell growth in a cell viability assay.
# [43] = test system: A-427; type: functional, cell-based, Homo sapiens; conditions: Homo sapiens, A-427;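 also: growth inhibition of human A-427 cells, read out by a cell viability assay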
# Description: SANGER: Inhibition of human A427 cell growth in a cell viability assay.
# [44] = test system: BB65-RCC; type: functional, cell-based, Homo sapiens; conditions: Homo sapiens, BB65-RCC;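 also: growth inhibition of the cell line, measured with a cell viability assay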
# Description: SANGER: Inhibition of human BB65-RCC cell growth in a cell viability assay.
# [45] = test system: BFTC-905; type: functional, cell-based, Homo sapiens; conditions: Homo sapiens, BFTC-905
# Description: SANGER: Inhibition of human BFTC-905 cell growth in a cell viability assay.
# [46] = test system: UACC-257; type: functional, cell-based, Homo sapiens; conditions: Homo sapiens, UACC-257
# Description: SANGER: Inhibition of human UACC-257 cell growth in a cell viability assay.
# [47] = test system: VM-CUB-1; type: functional, cell-based; conditions: Homo sapiens;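 also: cell viability assay measuring growth inhibition of the human VM-CUB-1 cell line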
# Description: SANGER: Inhibition of human VM-CUB-1 cell growth in a cell viability assay.
# [48] = test system: YAPC; type: functional, cell-based, Homo sapiens; conditions: Homo sapiens, YAPC;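 also: growth inhibition of YAPC cells, measured with a cell viability assay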
# Description: SANGER: Inhibition of human YAPC cell growth in a cell viability assay.
# [49] = test system: CCRF-CEM; type: functional, cell-based; conditions: Homo sapiens;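 also: inhibition of CCRF-CEM cell growth, measured by a cell viability assay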
# Description: SANGER: Inhibition of human CCRF-CEM cell growth in a cell viability assay.
# [50] = test system: CHP-212; type: functional, cell-based, Homo sapiens; conditions: Homo sapiens, CHP-212
# Description: SANGER: Inhibition of human CHP-212 cell growth in a cell viability assay.
structure (smiles),measurement,setting,value
Cc1ccc(Nc2nccc(N(C)c3ccc4c(C)n(C)nc4c3)n2)cc1S(N)(=O)=O [PAZOPANIB],IC50,[1],> 8000 nM
same,IC50,[2],> 8000 nM
same,IC50,[3],> 8000 nM
same,IC50,[4],> 8000 nM
same,IC50,[5],4960 nM
same,IC50,[6],> 8000 nM
same,IC50,[7],6030 nM
same,IC50,[8],> 8000 nM
same,IC50,[9],> 8000 nM
same,IC50,[10],> 8000 nM
same,IC50,[11],> 8000 nM
same,IC50,[12],> 8000 nM
same,IC50,[13],> 8000 nM
same,IC50,[14],> 8000 nM
same,IC50,[15],> 8000 nM
same,IC50,[16],> 8000 nM
same,IC50,[17],> 8000 nM
same,IC50,[18],> 8000 nM
same,IC50,[19],> 8000 nM
same,IC50,[20],> 8000 nM
same,IC50,[21],> 8000 nM
same,IC50,[22],> 8000 nM
same,IC50,[23],> 8000 nM
same,IC50,[24],> 8000 nM
same,IC50,[25],> 8000 nM
same,IC50,[26],> 8000 nM
same,IC50,[27],> 8000 nM
same,IC50,[28],> 8000 nM
same,IC50,[29],> 8000 nM
same,IC50,[30],> 8000 nM
same,IC50,[31],> 8000 nM
same,IC50,[32],> 8000 nM
same,IC50,[33],> 8000 nM
same,IC50,[34],> 8000 nM
same,IC50,[35],> 8000 nM
same,IC50,[36],> 8000 nM
same,IC50,[37],> 8000 nM
same,IC50,[38],6870 nM
same,IC50,[39],> 8000 nM
same,IC50,[40],> 8000 nM
same,IC50,[41],> 8000 nM
same,IC50,[42],> 8000 nM
same,IC50,[43],1980 nM
same,IC50,[44],> 8000 nM
same,IC50,[45],> 8000 nM
same,IC50,[46],> 8000 nM
same,IC50,[47],> 8000 nM
same,IC50,[48],> 8000 nM
same,IC50,[49],> 8000 nM
same,IC50,[50],> 8000 nM
CN(c1ncccc1CNc1nc(Nc2ccc3c(c2)CC(=O)N3)ncc1C(F)(F)F)S(C)(=O)=O [PF-00562271],IC50,[1],> 2560 nM
same,IC50,[2],> 2560 nM
same,IC50,[3],> 2560 nM
same,IC50,[4],> 2560 nM
same,IC50,[5],> 2560 nM
same,IC50,[6],> 2560 nM
same,IC50,[7],> 2560 nM
same,IC50,[8],> 2560 nM
same,IC50,[9],> 2560 nM
same,IC50,[10],> 2560 nM
same,IC50,[11],> 2560 nM
same,IC50,[12],> 2560 nM
same,IC50,[13],> 2560 nM
same,IC50,[14],> 2560 nM
same,IC50,[15],> 2560 nM
same,IC50,[16],2290 nM
same,IC50,[17],> 2560 nM
same,IC50,[18],> 2560 nM
same,IC50,[19],> 2560 nM
same,IC50,[20],> 2560 nM
same,IC50,[21],> 2560 nM
same,IC50,[22],> 2560 nM
same,IC50,[23],> 2560 nM
same,IC50,[24],1620 nM
same,IC50,[25],> 2560 nM
same,IC50,[26],> 2560 nM
same,IC50,[27],> 2560 nM
same,IC50,[28],> 2560 nM
same,IC50,[29],> 2560 nM
same,IC50,[30],> 2560 nM
same,IC50,[31],> 2560 nM
same,IC50,[32],> 2560 nM
same,IC50,[33],> 2560 nM
same,IC50,[34],2330 nM
same,IC50,[35],> 2560 nM
same,IC50,[36],> 2560 nM
same,IC50,[37],> 2560 nM
same,IC50,[38],> 2560 nM
same,IC50,[39],> 2560 nM
same,IC50,[40],> 2560 nM
same,IC50,[41],> 2560 nM
same,IC50,[42],> 2560 nM
same,IC50,[43],> 2560 nM
same,IC50,[44],> 2560 nM
same,IC50,[45],> 2560 nM
same,IC50,[46],> 2560 nM
same,IC50,[47],> 2560 nM
same,IC50,[48],> 2560 nM
same,IC50,[49],> 2560 nM
same,IC50,[50],2100 nM
Cn1cncc1[C@@](N)(c1ccc(Cl)cc1)c1ccc2c(c1)c(-c1cccc(Cl)c1)cc(=O)n2C [TIPIFARNIB],IC50,[1],7240 nM
same,IC50,[2],10600 nM
same,IC50,[3],1410 nM
same,IC50,[4],> 16000 nM
same,IC50,[5],720 nM
same,IC50,[6],> 16000 nM
same,IC50,[7],539 nM
same,IC50,[8],9020 nM
same,IC50,[9],1050 nM
same,IC50,[10],394 nM
same,IC50,[11],216 nM
same,IC50,[12],> 16000 nM
same,IC50,[13],4100 nM
same,IC50,[14],> 16000 nM
same,IC50,[15],> 16000 nM
same,IC50,[16],3370 nM
same,IC50,[17],6420 nM
same,IC50,[18],1100 nM
same,IC50,[19],14700 nM
same,IC50,[20],3610 nM
same,IC50,[21],1440 nM
same,IC50,[22],> 16000 nM
same,IC50,[23],> 16000 nM
same,IC50,[24],2820 nM
same,IC50,[25],2040 nM
same,IC50,[26],693 nM
same,IC50,[27],974 nM
same,IC50,[28],> 16000 nM
same,IC50,[29],> 16000 nM
same,IC50,[30],191 nM
same,IC50,[31],6490 nM
same,IC50,[32],10400 nM
same,IC50,[33],5050 nM
same,IC50,[34],8490 nM
same,IC50,[35],8070 nM
same,IC50,[36],184 nM
same,IC50,[37],3740 nM
same,IC50,[38],1910 nM
same,IC50,[39],623 nM
same,IC50,[40],8570 nM
same,IC50,[41],2300 nM
same,IC50,[42],11800 nM
same,IC50,[43],579 nM
same,IC50,[44],2640 nM
same,IC50,[45],1880 nM
same,IC50,[46],> 16000 nM
same,IC50,[47],5760 nM
same,IC50,[48],> 16000 nM
same,IC50,[49],1640 nM
same,IC50,[50],1380 nM
